Literature values, collected in US8778892B2, “Compounds and methods for treatment of solid tumors” (B & G Partners, LLC, priority 2008, dated 2014).

Molecular target: CD44 (Homo sapiens, UniProt P16070)
Settings: intact cells

Chain of CD44 (P16070 21-742, species assumed): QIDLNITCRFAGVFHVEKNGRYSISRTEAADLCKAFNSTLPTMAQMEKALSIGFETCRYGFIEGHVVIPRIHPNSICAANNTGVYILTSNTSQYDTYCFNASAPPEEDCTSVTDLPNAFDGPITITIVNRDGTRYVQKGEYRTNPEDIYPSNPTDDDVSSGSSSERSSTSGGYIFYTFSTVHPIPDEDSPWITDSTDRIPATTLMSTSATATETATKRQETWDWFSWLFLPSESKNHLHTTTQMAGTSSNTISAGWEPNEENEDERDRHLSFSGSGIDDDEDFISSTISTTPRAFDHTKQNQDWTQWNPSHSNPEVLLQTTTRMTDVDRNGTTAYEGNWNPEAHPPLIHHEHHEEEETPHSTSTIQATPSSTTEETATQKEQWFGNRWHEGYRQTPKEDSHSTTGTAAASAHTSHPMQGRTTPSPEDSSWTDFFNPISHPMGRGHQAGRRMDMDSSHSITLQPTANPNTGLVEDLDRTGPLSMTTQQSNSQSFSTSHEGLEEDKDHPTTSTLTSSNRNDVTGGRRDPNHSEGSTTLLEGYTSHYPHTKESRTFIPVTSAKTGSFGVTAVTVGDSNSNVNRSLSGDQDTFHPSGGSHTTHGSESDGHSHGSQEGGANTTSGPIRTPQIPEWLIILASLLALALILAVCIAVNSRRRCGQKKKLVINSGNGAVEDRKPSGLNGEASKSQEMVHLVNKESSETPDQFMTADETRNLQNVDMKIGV

Row | capacity to compete with hyaluronan for binding | Substance
1 | little capacity to compete | chondroitin sulfate
2 | little capacity to compete | heparan sulfate
